Reference: the supplement of paper PMC10307832

Columns and labels:
Test in all cases: relative viability (nuclei count vs DMSO), 5 days (fraction); higher = more cells survive
Cediranib + Crizotinib = compound: COc1cc2c(Oc3ccc4[nH]c(C)cc4c3F)ncnc2cc1OCCCN1CCCC1 [Cediranib] + C[C@@H](Oc1cc(-c2cnn(C3CCNCC3)c2)cnc1N)c1c(Cl)ccc(F)c1Cl [Crizotinib] (partner 1 µM)
Procedure, shortened: (§1)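 Lung cancer cell lines were pin-tool dosed in 1536-well plates on the day after seeding, with either a lone drug or a fixed anchor-drug dose plus five library-drug doses (not always all listed) in √10 steps. Nuclei were counted on 4× images after 5 days. Relative viability is the ratio of treated-well to vehicle-well nuclei counts, with each value a median of duplicate plates.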

Decitabine + Phenformin = compound: Nc1ncn([C@H]2C[C@H](O)[C@@H](CO)O2)c(=O)n1 [Decitabine] + N=C(N)NC(=N)NCCc1ccccc1 [Phenformin] (partner 250 µM)
Procedure, shortened: as §1

Halofuginone + Foretinib = compound: O=C(C[C@H]1NCCC[C@@H]1O)Cn1cnc2cc(Br)c(Cl)cc2c1=O (racemic) [Halofuginone] + COc1cc2c(Oc3ccc(NC(=O)C4(C(=O)Nc5ccc(F)cc5)CC4)cc3F)ccnc2cc1OCCCN1CCOCC1 [Foretinib] (partner 0.25 µM)
Procedure, shortened: as §1

Halofuginone + Alpelisib = compound: O=C(C[C@H]1NCCC[C@@H]1O)Cn1cnc2cc(Br)c(Cl)cc2c1=O (racemic) [Halofuginone] + Cc1nc(NC(=O)N2CCC[C@H]2C(N)=O)sc1-c1ccnc(C(C)(C)C(F)(F)F)c1 [Alpelisib] (partner 2 µM)
Procedure, shortened: as §1

Cell Line	relative viability (Cediranib + Crizotinib; first compound 0.04 µM)	relative viability (Cediranib + Crizotinib; first compound 0.1265 µM)	relative viability (Cediranib + Crizotinib; first compound 0.4 µM)	relative viability (Cediranib + Crizotinib; first compound 1.265 µM)	relative viability (Cediranib + Crizotinib; first compound 4 µM)	relative viability (Decitabine + Phenformin; first compound 0.04 µM)	relative viability (Decitabine + Phenformin; first compound 0.1265 µM)	relative viability (Decitabine + Phenformin; first compound 0.4 µM)	relative viability (Decitabine + Phenformin; first compound 1.265 µM)	relative viability (Decitabine + Phenformin; first compound 4 µM)	relative viability (Halofuginone + Foretinib; first compound 0.001 µM)	relative viability (Halofuginone + Foretinib; first compound 0.003162 µM)	relative viability (Halofuginone + Foretinib; first compound 0.01 µM)	relative viability (Halofuginone + Foretinib; first compound 0.03162 µM)	relative viability (Halofuginone + Foretinib; first compound 0.1 µM)	relative viability (Halofuginone + Alpelisib; first compound 0.001 µM)	relative viability (Halofuginone + Alpelisib; first compound 0.003162 µM)	relative viability (Halofuginone + Alpelisib; first compound 0.01 µM)	relative viability (Halofuginone + Alpelisib; first compound 0.03162 µM)	relative viability (Halofuginone + Alpelisib; first compound 0.1 µM)
NCI-H1563	0.919	0.866	0.854	0.833	0.894	0.631	0.75	0.764	0.658	0.74	0.985	0.879	0.905	0.662	0.509	0.874	0.935	0.851	0.633	0.508
NCI-H1651	0.887	0.904	0.876	0.89	0.976	0.331	0.345	0.383	0.287	0.318	0.91	0.814	0.696	0.519	0.416	0.906	0.9	0.889	0.66	0.278
NCI-H1666	1.02	1.02	0.896	1.01	0.874	0.617	0.568	0.522	0.506	0.593	0.979	0.934	1.01	0.952	0.936	0.936	0.791	0.857	0.92	0.607
NCI-H1734	0.604	0.612	0.551	0.691	0.695	0.348	0.38	0.382	0.276	0.274	0.961	0.809	0.831	0.751	0.485	0.685	0.679	0.674	0.612	0.452
NCI-H1755	0.888	0.845	0.838	0.855	0.848	0.625	0.629	0.43	0.442	0.465	0.943	0.955	0.861	0.895	0.877	0.866	0.937	0.891	0.923	0.588
NCI-H1915	1.01	0.851	0.883	0.873	0.832	0.291	0.294	0.274	0.242	0.26	1.12	1.16	1.07	1.03	0.97	1.08	1.11	1.05	0.921	0.929
NCI-H1944	1.14	1.03	0.994	1.05	1.06	0.191	0.21	0.227	0.166	0.199	0.865	0.89	0.853	0.899	0.561	0.829	0.85	0.827	0.839	0.68
NCI-H1975	1.16	1.05	0.92	1.02	0.913	0.281	0.27	0.214	0.229	0.197	0.945	1.04	0.796	0.79	0.251	0.684	0.674	0.719	0.302	0.115
NCI-H1993	0.968	0.902	0.886	0.865	0.858	0.558	0.494	0.507	0.504	0.478	0.911	0.749	0.727	0.772	0.734	0.696	0.677	0.664	0.711	0.57
NCI-H2009	1.12	1.03	0.989	1.06	1.04	0.433	0.4	0.333	0.282	0.286	1.21	1.23	1.13	1.18	0.775	1.23	1.2	1.12	0.969	0.393
NCI-H2023	0.579	0.703	0.489	0.575	0.588	0.31	0.346	0.222	0.163	0.161	1.11	0.636	0.826	0.288	0.139	0.645	0.624	0.519	0.281	0.147
NCI-H2085	0.888	0.927	0.876	0.813	0.868	0.516	0.51	0.381	0.361	0.394	0.935	0.937	0.974	1.22	0.59	0.901	0.98	0.943	0.873	0.623
NCI-H2087	0.926	0.868	0.807	0.838	0.912	0.411	0.359	0.291	0.242	0.25	1.28	1.14	1.04	1.29	0.331	1.12	0.98	1.14	0.935	0.612
NCI-H2126	1.04	1.07	0.986	0.994	1.01	0.478	0.483	0.423	0.451	0.468	1.28	1.19	1.16	1.17	0.947	0.71	0.74	0.696	0.734	0.698
NCI-H2170	1.45	1.42	1.05	1.13	1.37	0.345	0.365	0.291	0.269	0.282	0.987	1	0.968	0.478	1.03	0.863	0.846	0.799	0.681	0.656
NCI-H2228	0.54	0.562	0.545	0.419	0.327	0.271	0.252	0.103	0.154	0.192	0.908	1.08	0.777	0.325	0.146	0.797	0.877	0.762	0.399	0.151
